Measurements as given in patent US3980794A, “Method for promoting growth of poultry with 3-(5-nitro-2-imidazolyl)pyrazoles” (Eli Lilly and Company, priority 1975, dated 1976).
Converted amounts (≈) assume the structure as drawn.

Assays:
[1] = tested on: Propionibacterium acnes 79; assay: Susceptibility of anaerobic bacteria, agar dilution; type: cell-based; conditions: Cutibacterium acnes, 79, 24 h, read-out: 24 Hr. Minimum Inhibitory Concentration
[2] = tested on: Peptococcus anaerobius 1428; assay: as above; type: cell-based; conditions: 24 h, read-out: 24 Hr. Minimum Inhibitory Concentration
[3] = tested on: Propionibacterium acnes 44; assay: as above; type: cell-based; conditions: Cutibacterium acnes, 24 h; Propionibacterium acnes 44; read-out: 24 Hr. Minimum Inhibitory Concentration
[4] = tested on: Clostridium innocuum 1373; assay: as above; type: cell-based; conditions: [Clostridium] innocuum, 1373, 24 h, read-out: 24 Hr. Minimum Inhibitory Concentration
Clostridium ramosum 1313 = assay: as above; type: cell-based; conditions: Thomasclavelia ramosa, 1313, 24 h, read-out: 24 Hr. Minimum Inhibitory Concentration
[5] = tested on: Bacteroides fragilis sp. fragilis 1877; assay: as above; type: cell-based; conditions: Bacteroides fragilis, 24 h, read-out: 24 Hr. Minimum Inhibitory Concentration
[6] = tested on: Clostridium septicum 1128; assay: as above; type: cell-based; conditions: 24 h, read-out: 24 Hr. Minimum Inhibitory Concentration
[7] = tested on: Clostridium septicum bovine; assay: as above; type: cell-based; conditions: 24 h, read-out: 24 Hr. Minimum Inhibitory Concentration
[8] = tested on: Clostridium perfringens 81; assay: microbe, parasite or virus in culture; type: cell-based; conditions: Clostridium perfringens, 81, 24 h, read-out: 24 Hr. Minimum Inhibitory Concentration
[9] = tested on: Bacteroides fragilis sp. thetaiotaomicron 1438; assay: Susceptibility of anaerobic bacteria, agar dilution; type: cell-based; conditions: Bacteroides fragilis, 24 h, read-out: 24 Hr. Minimum Inhibitory Concentration
[10] = tested on: Peptostreptococcus intermedius 1264; assay: as above; type: cell-based; conditions: 24 h; Peptostreptococcus intermedius 1264; read-out: 24 Hr. Minimum Inhibitory Concentration
[11] = tested on: Fusobacterium necrophorum 13859; assay: as above; type: cell-based; conditions: Fusobacterium necrophorum, 13859, 24 h, read-out: 24 Hr. Minimum Inhibitory Concentration
[12] = tested on: Bacteroides fragilis sp. vulgatus 1563; assay: as above; type: cell-based; conditions: Bacteroides fragilis, 24 h, read-out: 24 Hr. Minimum Inhibitory Concentration
[13] = tested on: Eubacterium aerofaciens 1235; assay: as above; type: cell-based; conditions: Collinsella aerofaciens, 1235, 24 h, read-out: 24 Hr. Minimum Inhibitory Concentration
Actinomyces bovis 13684 = assay: as above; type: cell-based; conditions: Actinomyces bovis, 13684, 24 h, read-out: 24 Hr. Minimum Inhibitory Concentration
[14] = tested on: Bacteroides fragilis sp. vulgatus 1211; assay: as above; type: cell-based; conditions: Bacteroides fragilis, 24 h, read-out: 24 Hr. Minimum Inhibitory Concentration
[15] = tested on: Veillonella alcalescens 1; assay: as above; type: cell-based; conditions: Veillonella parvula, 1, 24 h, read-out: 24 Hr. Minimum Inhibitory Concentration
Salmonella typhimurium = assay: Control of infections caused by Salmonella typhimurium in chickens, subcutaneous (Experiment 2); type: in vivo; conditions: Salmonella enterica, sc, 144 h, 6 days, read-out: Survival Ratio (converted)
Description: The efficacy of the novel compounds in the control of infections caused by Salmonella typhimurium in chickens was evaluated in the following manner.
The test was carried out using day-old chicks weighing approximately 35 g. each. The chicks were divided into groups of 5 chicks per each dosage level. A portion of the chicks received the test compound which was suspended in 0.2 ml. of polyethylene glycol 200 and administered subcutanusly in the neck. […] All the chicks were challenged with a 1:200 dilution of a culture of the organism, 0.1 ml. of the dilution being injected into each chick in the leg intramuscularly. […] The test compounds are identified in the same manner as set forth in Experiment 1.
In the chart, column 1 lists the compounds tested; column 2, the dosage of test compound in mg./kg.; and column 3, the survival ratio.

[16] = tested on: Fusobacterium symbiosum 1470; assay: Susceptibility of anaerobic bacteria, agar dilution; type: cell-based; conditions: Fusobacterium, 1470, 24 h, read-out: 24 Hr. Minimum Inhibitory Concentration
[17] = tested on: Bacteroides fragilis sp. fragilis 1936B; assay: as above; type: cell-based; conditions: Bacteroides fragilis, 24 h, read-out: 24 Hr. Minimum Inhibitory Concentration

CC=CC=Nc1c(C#N)c(-c2ncc([N+](=O)[O-])n2C)nn1C [Compound 18, 5-(2-butenylideneamino)-1-methyl-3-(1-methyl-5-nitro-2-imidazolyl)pyrazole-4-carbonitrile]
MIC [1]: < 0.125 µg/mL | MIC [2]: < 0.125 µg/mL | MIC [3]: > 32 µg/mL | MIC [4]: < 0.125 µg/mL | MIC (Clostridium ramosum 1313): < 0.125 µg/mL | MIC [5]: < 0.125 µg/mL | MIC [6]: < 0.125 µg/mL | MIC [7]: < 0.125 µg/mL | MIC [8]: < 0.125 µg/mL | MIC [9]: < 0.125 µg/mL | MIC [10]: 0.25 µg/mL (≈ 0.835 µM) | MIC [11]: < 0.125 µg/mL | MIC [12]: < 0.125 µg/mL | MIC [13]: < 0.125 µg/mL | MIC (Actinomyces bovis 13684): < 0.125 µg/mL | MIC [14]: < 0.125 µg/mL | MIC [15]: < 0.125 µg/mL | responders at 7.5 mg/kg (Salmonella typhimurium; 7.5 mg./kg. subcutaneous): 0% | responders at 15 mg/kg (Salmonella typhimurium; 15 mg./kg. subcutaneous): 53.3% | responders at 30 mg/kg (Salmonella typhimurium; 30 mg./kg. subcutaneous): 66.7% | responders at 60 mg/kg (Salmonella typhimurium; 60 mg./kg. subcutaneous): 66.7% | MIC [16]: < 0.125 µg/mL | MIC [17]: < 0.125 µg/mL
